According to patent US8546370B2, “Compounds and compositions as kinase inhibitors” (IRM LLC, priority 2008, dated 2013):

Key:
[1] = biological target: Ba/F3 cells transformed with Tel-KDR (Homo sapiens, UniProt P35968); conditions: read-out: IC50 in BaF3/Tel-KDR cellular assay
Description: (§1) Luciferase expressing Ba/F3 murine pro-B cells are transformed with Tel-Syk, Tel-Zap70 or Tel-KDR. Cells are maintained in RPMI/10% fetal calf serum (RPMI/FCS) supplemented with penicillin 50 μg/mL, streptomycin 50 μg/mL and L-glutamine 200 mM. Untransformed Ba/F3 cells are similarly maintained with the addition of murine recombinant IL3. Cells are dispensed into 384-well format plate at 5000 cell/well in 50 μL of culture medium. Compounds of the invention are dissolved and diluted in dimethylsufoxide (DMSO). Twelve points 1:3 serial dilutions are made into DMSO to create concentrations gradient ranging from 10 mM to 0.05 μM. Cells are added with 50 nL of diluted compounds and incubated for 48 hours in cell culture incubator. Luminiscent signal is measured following the addition of Bright Glo® (Promega) luciferase substrate. IC50 values are calculated by linear regression analysis of the percentage inhibition of each compound at 12 concentrations.
(§2) Compounds of the invention are tested for their antiproliferative effect on Ba/F3 cells expressing either Tel-TrkA, Tel-TrkB or Tel-TrkC and an additional panel of 34 selected diverse kinases activated by fusion to the dimerizing partners Bcr or Tel (Abl, AlK, BMX, EphA3, EphB2, FGFR2, FGFR3, FGFR4, FGR, FLT1, FLT3, FLT4, FMS, IGF1R, InsR, JAK1, JAK2, JAK3, KDR, Kit, Lck, Lyn, MER, MET, PDGFRb, RET, RON, Ros-1, Src, Syk, TIE2, TYK2, Tie1, ZAP70). The antiproliferative effect of these compounds on the different cell lines and on the non transformed cells were tested at 12 different concentrations of 3-fold serially diluted compounds in 384 well plates as described above (in media lacking IL3). The IC50 values of the compounds the different cell lines were determined from the dose response curves obtained as describe above.

[2] = biological target: Ba/F3 cells transformed with Tel-Syk (Homo sapiens, UniProt P43405); conditions: read-out: IC50 in BaF3/Tel-Syk cellular assay
Description: as §1, §2

[3] = biological target: Ba/F3 cells expressing Tel-FMS (Homo sapiens, UniProt P07333); conditions: read-out: IC50 in BaF3/Tel-FMS cellular assay
Ba/F3 cells expressing Tel-FMS, sequence (P07333 20-972 limits assumed, change not shown): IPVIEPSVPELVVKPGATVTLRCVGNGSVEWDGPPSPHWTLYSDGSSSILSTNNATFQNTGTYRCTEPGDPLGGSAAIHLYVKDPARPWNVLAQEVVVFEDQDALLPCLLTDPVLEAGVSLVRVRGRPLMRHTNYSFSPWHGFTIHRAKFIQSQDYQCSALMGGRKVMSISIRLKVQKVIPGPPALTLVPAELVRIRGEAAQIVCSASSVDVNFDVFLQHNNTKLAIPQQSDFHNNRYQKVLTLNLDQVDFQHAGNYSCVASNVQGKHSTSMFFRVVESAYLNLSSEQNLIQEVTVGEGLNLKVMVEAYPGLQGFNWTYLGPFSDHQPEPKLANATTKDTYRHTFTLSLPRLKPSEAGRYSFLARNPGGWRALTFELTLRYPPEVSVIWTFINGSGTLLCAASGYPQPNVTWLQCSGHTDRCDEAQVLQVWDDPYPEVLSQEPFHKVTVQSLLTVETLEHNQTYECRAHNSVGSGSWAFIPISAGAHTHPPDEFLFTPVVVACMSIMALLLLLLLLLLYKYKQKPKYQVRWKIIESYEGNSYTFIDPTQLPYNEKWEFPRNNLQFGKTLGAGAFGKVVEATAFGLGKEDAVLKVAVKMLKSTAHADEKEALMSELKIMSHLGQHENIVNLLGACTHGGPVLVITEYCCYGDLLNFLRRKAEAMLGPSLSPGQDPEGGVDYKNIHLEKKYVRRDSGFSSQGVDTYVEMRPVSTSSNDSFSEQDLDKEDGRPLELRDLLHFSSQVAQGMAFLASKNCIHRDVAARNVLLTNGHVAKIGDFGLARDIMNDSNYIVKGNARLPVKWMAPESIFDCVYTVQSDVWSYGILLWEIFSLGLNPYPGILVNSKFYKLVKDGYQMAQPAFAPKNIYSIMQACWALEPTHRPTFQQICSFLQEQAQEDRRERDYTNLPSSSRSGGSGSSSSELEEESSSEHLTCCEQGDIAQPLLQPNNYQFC
Description: as §2

[4] = biological target: Ba/F3 cells transformed with Tel c-Kit (Homo sapiens, UniProt P10721); conditions: read-out: IC50 in BaF3/Tel-KIT cellular assay
Ba/F3 cells transformed with Tel c-Kit, sequence (P10721 26-976 limits assumed, change not shown): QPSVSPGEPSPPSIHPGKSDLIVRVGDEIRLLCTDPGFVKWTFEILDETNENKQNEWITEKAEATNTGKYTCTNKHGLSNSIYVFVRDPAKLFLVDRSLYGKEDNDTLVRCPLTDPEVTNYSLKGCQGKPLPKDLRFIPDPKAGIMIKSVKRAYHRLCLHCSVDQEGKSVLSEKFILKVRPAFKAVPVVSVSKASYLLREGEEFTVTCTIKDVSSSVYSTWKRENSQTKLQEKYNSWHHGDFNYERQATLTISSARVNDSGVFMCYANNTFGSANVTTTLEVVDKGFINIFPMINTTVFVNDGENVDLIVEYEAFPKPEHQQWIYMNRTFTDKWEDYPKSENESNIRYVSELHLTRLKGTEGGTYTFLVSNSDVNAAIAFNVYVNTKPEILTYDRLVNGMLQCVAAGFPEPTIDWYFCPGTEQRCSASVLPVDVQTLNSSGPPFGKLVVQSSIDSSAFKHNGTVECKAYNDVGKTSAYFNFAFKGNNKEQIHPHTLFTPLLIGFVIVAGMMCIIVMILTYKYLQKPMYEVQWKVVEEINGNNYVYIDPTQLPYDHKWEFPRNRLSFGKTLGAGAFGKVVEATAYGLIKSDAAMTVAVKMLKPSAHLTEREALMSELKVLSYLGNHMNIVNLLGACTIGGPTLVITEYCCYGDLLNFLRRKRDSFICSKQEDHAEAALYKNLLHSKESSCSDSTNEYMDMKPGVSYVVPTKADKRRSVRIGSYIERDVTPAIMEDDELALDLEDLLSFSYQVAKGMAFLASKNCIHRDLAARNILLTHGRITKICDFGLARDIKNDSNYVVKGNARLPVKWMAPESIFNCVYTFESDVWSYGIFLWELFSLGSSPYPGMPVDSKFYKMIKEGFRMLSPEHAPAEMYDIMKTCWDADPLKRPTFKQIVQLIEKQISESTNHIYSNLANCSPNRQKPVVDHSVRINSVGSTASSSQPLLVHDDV
Description: as §2

[5] = biological target: Ba/F3 cells transformed with human Tel-TrkA (Homo sapiens, UniProt P04629); conditions: read-out: IC50 in BaF3/Tel-TRKA cellular assay
Ba/F3 cells transformed with human Tel-TrkA, sequence (P04629 33-796 limits assumed, change not shown): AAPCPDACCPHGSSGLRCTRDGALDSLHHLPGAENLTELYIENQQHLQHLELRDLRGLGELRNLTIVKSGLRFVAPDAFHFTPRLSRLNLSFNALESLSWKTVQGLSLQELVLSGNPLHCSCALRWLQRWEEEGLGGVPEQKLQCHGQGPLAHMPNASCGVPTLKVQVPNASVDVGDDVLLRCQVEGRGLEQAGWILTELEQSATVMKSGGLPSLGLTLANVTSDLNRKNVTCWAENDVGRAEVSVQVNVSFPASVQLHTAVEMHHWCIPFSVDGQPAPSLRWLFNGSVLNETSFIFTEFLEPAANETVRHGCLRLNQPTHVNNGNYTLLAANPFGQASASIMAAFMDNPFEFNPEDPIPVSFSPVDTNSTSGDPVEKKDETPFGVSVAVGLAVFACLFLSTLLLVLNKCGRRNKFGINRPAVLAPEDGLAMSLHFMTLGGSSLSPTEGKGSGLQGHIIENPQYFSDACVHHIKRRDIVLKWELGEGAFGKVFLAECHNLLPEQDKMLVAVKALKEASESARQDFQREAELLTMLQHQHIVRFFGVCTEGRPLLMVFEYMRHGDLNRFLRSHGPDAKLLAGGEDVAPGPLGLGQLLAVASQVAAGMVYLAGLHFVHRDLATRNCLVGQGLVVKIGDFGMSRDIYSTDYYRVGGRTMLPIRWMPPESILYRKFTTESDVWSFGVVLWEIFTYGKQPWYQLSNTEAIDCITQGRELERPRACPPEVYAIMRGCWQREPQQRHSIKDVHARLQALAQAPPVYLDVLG
Description: as §2

Abl = Abl (Homo sapiens (Human), UniProt P00519); test: Caliper LabChip mobility-shift kinase assay, single point; format: biochemical; conditions: at a concentration of 5 μM
Description: (§3) In addition, compounds of Formula (I) were assessed for their ability to inhibit individual kinases utilizing Caliper Life Sciences' proprietary LabChip™ technology. A partial, non-limiting list of kinases includes: Syk, ZAP70, KDR, FMS, FLT3, c-Kit, RET, TrkA, TrkB, TrkC, IGR-1R, Alk and c-FMS kinases. The off-chip incubation mobility-shift kinase assay uses a microfluidic chip to measure the conversion of a fluorescent peptide substrate to a phosphorylated product. The reaction mixture, from a microtiter plate well, is introduced through a capillary sipper onto the chip, where the nonphosphorylated substrate and phosphorylated product are separated by electrophoresis and detected via laser induced fluorescence. […] The phosphorylated product migrates through the chip faster than the non-phosphorylated substrate, and signals from the two forms of the peptide appear as distinct peaks. Caliper's data analysis software (HTSWA) determines peak heights, from which the ratio of product to the peak sum P/(P+S) and percent (%) conversion is calculated. This value is used to compare compound wells to control wells present on the plate, and thereby determine the % inhibition values for the compound.
(§4) Generally, 12 μL of enzyme buffer containing purified kinase (various amount; various suppliers), 100 mM HEPES, pH 7.5, 1 mM DTT (Calbiochem, 2333153), 10 mM MgCl2 (Sigma, M-1028) or 10 mM MnCl2 (Sigma, M-1787) (assay specific), and 0.002% Brij-35 (Sigma, B4184) are added to each well. Compound and enzyme are allowed to pre-incubate for 15 minutes. 12 μL of peptide/ATP buffer containing 100 mM HEPES, pH 7.5, 1.5 μM fluorescein-labeled peptide (specific to kinase of interest), ATP (at KM apparent, Sigma, A9187), and 0.002% Brij-35 is then added to each well to initiate the reaction. The final concentration of DMSO in the well is 4%. Generally, reactions are incubated for 1 to 1.5 hours at room temperature to obtain adequate conversion of peptide to phosphorylated product in the linear range of the reaction. Reactions are terminated with the addition of 45 μL of Stop Buffer (containing 20 mM EDTA). Plates are then read on the LabChip 3000 using a 12-sipper LabChip. % conversion values and % inhibition values are obtained as described and IC50 curves of compounds are generated using GraphPad Prism Version 4 or 5.01, or XLfit Version 4.3.2. When using GraphPad Prism, a nonlinear curve fit using the sigmoidal dose response—variable slope fit was used to graph IC50 curves and determine IC50 values and hillslopes. When using XLfit, Fit Model 205 (4-Parameter Logistic Model) is used to generate and fit the IC50 curve.

CHK2 = CHK2 (Homo sapiens (Human), UniProt O96017); test: as above; format: biochemical; conditions: at a concentration of 5 μM
Description: as §3, §4

FLT3 = FLT3 (Homo sapiens (Human), UniProt P36888); test: as above; format: biochemical; conditions: at a concentration of 5 μM
FLT3, sequence (P36888 27-993, species assumed): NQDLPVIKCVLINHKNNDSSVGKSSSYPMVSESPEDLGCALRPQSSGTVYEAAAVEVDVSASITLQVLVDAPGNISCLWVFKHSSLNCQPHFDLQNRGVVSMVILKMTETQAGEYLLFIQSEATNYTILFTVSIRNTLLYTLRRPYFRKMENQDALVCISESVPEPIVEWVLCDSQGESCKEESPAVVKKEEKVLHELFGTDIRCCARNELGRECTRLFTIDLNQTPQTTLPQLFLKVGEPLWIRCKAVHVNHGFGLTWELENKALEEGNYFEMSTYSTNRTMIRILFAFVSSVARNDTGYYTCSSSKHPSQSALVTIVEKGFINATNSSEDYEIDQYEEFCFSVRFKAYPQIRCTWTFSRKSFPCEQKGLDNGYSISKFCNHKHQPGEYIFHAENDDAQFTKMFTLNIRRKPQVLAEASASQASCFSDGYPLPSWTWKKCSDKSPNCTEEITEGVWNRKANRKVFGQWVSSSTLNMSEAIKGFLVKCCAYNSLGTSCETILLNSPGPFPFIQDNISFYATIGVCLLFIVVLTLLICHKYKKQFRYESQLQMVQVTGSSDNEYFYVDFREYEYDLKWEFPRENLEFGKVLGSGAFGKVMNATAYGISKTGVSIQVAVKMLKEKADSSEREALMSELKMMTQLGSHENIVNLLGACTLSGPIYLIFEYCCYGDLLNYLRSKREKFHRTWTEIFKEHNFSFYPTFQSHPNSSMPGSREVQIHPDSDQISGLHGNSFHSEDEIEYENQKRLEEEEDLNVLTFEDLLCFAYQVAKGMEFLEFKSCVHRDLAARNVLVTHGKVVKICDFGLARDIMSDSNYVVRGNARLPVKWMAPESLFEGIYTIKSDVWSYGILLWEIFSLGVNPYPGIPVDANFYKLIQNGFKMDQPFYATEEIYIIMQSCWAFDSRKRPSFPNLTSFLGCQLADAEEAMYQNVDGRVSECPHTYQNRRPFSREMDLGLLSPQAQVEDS
Description: as §3, §4

FMS = FMS (Homo sapiens (Human), UniProt P07333); test: as above; format: biochemical; conditions: at a concentration of 5 μM
Description: as §3, §4

JAK2 = JAK2 (Homo sapiens (Human), UniProt O60674); test: as above; format: biochemical; conditions: at a concentration of 5 μM
Description: as §3, §4

KDR = KDR (Homo sapiens (Human), UniProt P35968); test: as above; format: biochemical; conditions: at a concentration of 5 μM
KDR, sequence (P35968 20-1356, species assumed): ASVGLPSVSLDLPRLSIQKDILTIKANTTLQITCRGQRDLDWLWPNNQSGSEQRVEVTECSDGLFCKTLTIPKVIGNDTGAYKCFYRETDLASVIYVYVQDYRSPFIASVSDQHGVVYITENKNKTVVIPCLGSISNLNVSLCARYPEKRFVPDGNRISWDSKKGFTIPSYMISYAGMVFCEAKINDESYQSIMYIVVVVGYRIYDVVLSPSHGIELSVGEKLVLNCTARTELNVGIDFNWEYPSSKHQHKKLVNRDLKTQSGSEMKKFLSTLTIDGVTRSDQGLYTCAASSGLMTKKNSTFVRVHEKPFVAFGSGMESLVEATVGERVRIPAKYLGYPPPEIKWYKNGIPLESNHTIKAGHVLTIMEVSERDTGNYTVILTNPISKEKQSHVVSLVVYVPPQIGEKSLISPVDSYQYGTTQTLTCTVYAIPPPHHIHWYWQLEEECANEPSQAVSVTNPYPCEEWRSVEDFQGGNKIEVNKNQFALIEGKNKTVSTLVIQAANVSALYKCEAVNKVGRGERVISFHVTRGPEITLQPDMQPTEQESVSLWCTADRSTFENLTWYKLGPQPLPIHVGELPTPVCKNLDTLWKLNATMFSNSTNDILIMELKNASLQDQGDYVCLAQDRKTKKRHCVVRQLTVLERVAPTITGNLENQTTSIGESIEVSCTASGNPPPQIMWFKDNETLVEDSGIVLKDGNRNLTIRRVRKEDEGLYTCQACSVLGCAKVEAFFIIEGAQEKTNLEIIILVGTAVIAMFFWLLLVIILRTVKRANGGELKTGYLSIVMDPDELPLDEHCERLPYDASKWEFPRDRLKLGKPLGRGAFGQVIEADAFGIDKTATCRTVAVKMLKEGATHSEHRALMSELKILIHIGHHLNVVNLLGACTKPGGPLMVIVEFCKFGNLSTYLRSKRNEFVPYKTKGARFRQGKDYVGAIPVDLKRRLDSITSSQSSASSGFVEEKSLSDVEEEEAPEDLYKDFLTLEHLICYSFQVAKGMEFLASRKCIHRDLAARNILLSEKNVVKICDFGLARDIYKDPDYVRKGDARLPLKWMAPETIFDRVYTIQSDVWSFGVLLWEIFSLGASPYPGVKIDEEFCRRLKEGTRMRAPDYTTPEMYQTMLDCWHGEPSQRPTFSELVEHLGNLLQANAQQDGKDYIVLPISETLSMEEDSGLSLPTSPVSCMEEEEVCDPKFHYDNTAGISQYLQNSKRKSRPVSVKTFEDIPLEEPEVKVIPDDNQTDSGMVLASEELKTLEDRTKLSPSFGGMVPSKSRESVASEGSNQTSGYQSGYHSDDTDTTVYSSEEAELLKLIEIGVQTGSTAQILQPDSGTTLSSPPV
Description: as §3, §4

RET = RET (Homo sapiens (Human), UniProt P07949); test: as above; format: biochemical; conditions: at a concentration of 5 μM
Description: as §3, §4

TRKA = TRKA (Homo sapiens (Human), UniProt P04629); test: as above; format: biochemical; conditions: at a concentration of 5 μM
TRKA, sequence (P04629 33-796, species assumed): as the sequence (P04629 33-796 limits assumed, change not shown) above
Description: as §3, §4

[6] = biological target: Ba/F3 cells expressing Tel-FLT3 (Homo sapiens, UniProt P36888); conditions: read-out: IC50 in BaF3/Tel-FLT3 cellular assay
Ba/F3 cells expressing Tel-FLT3, sequence (P36888 27-993 limits assumed, change not shown): as the sequence (P36888 27-993, species assumed) above
Description: as §2

Ba/F3 cells transformed with Tel-KDR, sequence (P35968 20-1356 limits assumed, change not shown): as the sequence (P35968 20-1356, species assumed) above

Work on `O=c1[nH]ccc2cc(-c3ccccc3)nc(Nc3ccc(N4CCOCC4)cc3)c12` [No 11, 8-(4-morpholinophenylamino)-6-phenyl-2,7-naphthyridin-1(2H)-one] yielded an IC50 [1] of 270 nM, an IC50 [2] of 150 nM and an IC50 [3] of 20 nM. It also gave an IC50 [4] of 20 nM, an IC50 [5] of 70 nM and an inhibition at 5 µM (Abl) of 100%. For the same molecule, the inhibition at 5 µM (CHK2) was 94%, the inhibition at 5 µM (FLT3) was 100% and the inhibition at 5 µM (FMS) was 84%. For the same molecule, the inhibition at 5 µM (JAK2) was 96%, the inhibition at 5 µM (KDR) was 96% and the inhibition at 5 µM (RET) was 99%. The inhibition at 5 µM (TRKA) was 74%.

For `CCN1CCN(c2cc3cc[nH]c(=O)c3c(Nc3ccc(N4CCOCC4)cc3)n2)CC1` [No 83, 8-(4-morpholinophenylamino)-6-(4-ethylpiperazin-1-yl)-2,7-naphthyridin-1(2H)-one], the IC50 [1] was 5000 nM, the IC50 [2] was 120 nM and the IC50 [6] was 530 nM. For the same molecule, the IC50 [3] was 500 nM, the IC50 [4] was 1220 nM and the IC50 [5] was 490 nM.
